# Reference: patent US8722052B2, “Vaccinia virus protein A46 peptide and use thereof” (priority 2008, dated 2014)
# Tested on: IκBα
# Assay: LPS-induced IκBα degradation in RAW264.7 cells, immunoblot
# Assay type: cell-based, murine
# Conditions: peptide 4 μM 1 h before 10 ng/ml LPS for 5, 15, 30 or 60 min
# Method: FIGS. 25A and B are immunoblots showing the effect of A464 on LPS-induced IκBα degradation in murine RAW264.7 cells. Cells were seeded in 6-well plates at 1.5×10^5 cells/ml 24 hours prior to treatment with peptides. […] Cells were stimulated with 10 ng/ml LPS for a period of 5, 15, 30 or 60 min and then harvested on ice and lysed in 1% NP-40 containing lysis buffer. Lysates then were denatured using 5× sample buffer with DTT and resolved by SDS-PAGE. The proteins were transferred to PVDF membrane and the membrane was immunoblotted for IκBα (A). Equal protein loading was confirmed by re-probing the blot for β-actin (B). The blots shown are representative of two experiments;
# RAW264.7 cells were seeded at a density of 1×10^5 cells/ml in 6 well plates. […] The protein concentration was determined by monitoring the change in the solution absorbance at 280 nm using a spectrophotometer compared to protein standards. […] Thereafter, the membranes were washed, incubated in appropriate secondary antibody and then developed using standard enhanced chemi-luminescence (ECL) reagents.
# To further assay activation of NFκB, the degradation of its inhibitor IκBα, an event required for the translocation of the NFκB into the nucleus, was measured. […]
sequence,measurement,value
KYSFKLILAEYRRRRRRRRR [Peptide A464],effect on LPS-induced IκBα degradation,blocked the degradation of IκBα seen at 15 and 30 min
